The test has as its target T1, human α2B adrenergic receptor (Homo sapiens, UniProt P18089).
T1 construct: host or cells: LM(tk-) cells, line L-NGC-α2B
T1 sequence (P18089 1-450): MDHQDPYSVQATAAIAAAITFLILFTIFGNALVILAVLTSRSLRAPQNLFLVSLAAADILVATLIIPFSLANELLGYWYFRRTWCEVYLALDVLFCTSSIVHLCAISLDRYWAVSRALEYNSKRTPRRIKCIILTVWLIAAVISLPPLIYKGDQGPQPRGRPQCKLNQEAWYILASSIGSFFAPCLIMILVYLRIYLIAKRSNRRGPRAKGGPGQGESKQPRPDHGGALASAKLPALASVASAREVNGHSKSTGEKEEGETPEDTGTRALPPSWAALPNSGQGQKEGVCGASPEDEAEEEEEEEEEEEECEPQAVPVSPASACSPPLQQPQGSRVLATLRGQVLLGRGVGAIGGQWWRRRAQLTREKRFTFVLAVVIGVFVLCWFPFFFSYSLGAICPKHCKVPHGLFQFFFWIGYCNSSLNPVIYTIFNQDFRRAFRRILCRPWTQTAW
In words: Binding at human α2B adrenergic receptor. The settings on record: Table 8; read-out: hα2B Ki. An excerpt: α2 Human Adrenergic Receptors: To determine the binding of compounds to human α2 receptors, LM(tk−) cell lines stably transfected with the genes encoding the α2A, α2B, and α2C receptors were used. The cell line expressing the α2A receptor is designated L-α2A, and was deposited on Nov. 6, 1992, under ATCC Accession No. CRL 11180. The cell line expressing the α2B receptor is designated L-NGC-α2B, and was deposited on Oct. 25, 1989, under ATCC Accession No. CRL 10275. The cell line expressing the α2C receptor is designated L-α2C, and was deposited on Nov. 6, 1992, under ATCC Accession No. CRL-11181. Cell lysates were prepared as described herin, and suspended in 25 mM glycyiglycine buffer (pH 7.6 at room temperature). Equilibrium competition binding assay were performed using […] (0.5 nM), and nonspecific binding was determined by incubation with 10 μM phentolamine. The bound radioligand was separated by filtration through GF/B filters using a cell harvester.
The binding affinity (Ki) of these compounds were tested according to the protocols described herein at the following receptors; human α1A, α1B, α1D, α2A, α2B, and α2C adrenergic receptors; human Y1, Y2, Y4, and Y5 receptors; and N-Methyl-D-aspartic acid (NMDA) receptor channels. The binding interactions of these compounds were additionally tested at the norepinephrine (NE) transporter (NE uptake) and serotonin (5-hydroxytryptamine (5HT)) transporter (5HT uptake) according to protocols described herein

This is an account of results in patent publication US20030176314A1, “Compounds for the treatment of pain” (priority 2001, published 2003).

Take `Cc1cc(NC(=N)N)nc2ccc(Cl)cc12` [Compound 4005A, N-(6-chloro-4-methyl-2-quinolinyl)guanidine]: the Ki (commonly a dissociation constant, usually derived from enzyme kinetics or from competition with a known ligand) amounted to 3.75 µM.
